Measured values taken from patent US9999616B2 (ZENITH EPIGENETICS LTD., priority 2013, dated 2018).

Key:
[1] = tested on: TH1, Th2 and Th17 cytokines; test: Ex vivo effects on T cell function from splenocyte and lymphocyte cultures stimulated with external MOG; assay type: in vivo, mouse; conditions: MOG stimulation 72 hours, mice treated 11 days b.i.d
Experimental: Mice were immunized with MOG/CFA and simultaneously treated with the compound for 11 days on a b.i.d regimen. Inguinal Lymph node and spleen were harvested, cultures were set up for lymphocytes and splenocytes and stimulated with external antigen (MOG) for 72 hours. Supernatants from these cultures were analyzed for TH1, Th2 and Th17 cytokines using a Cytometric Bead Array assay.

[2] = In vivo efficacy in experimental autoimmune encephalomyelitis (EAE) model of MS; parameters: species or system mouse; conditions: female C57Bl/6 mice, 50 to 125 mg/kg b.i.d.
Excerpt: Experimental autoimmune encephalomyelitis (EAE) is a T-cell-mediated autoimmune disease of the CNS which shares many clinical and histopathological features with human multiple sclerosis (MS). EAE is the most commonly used animal model of MS. […] Cytokines IL-23, IL-6 and IL-17, which are either critical for Th1 and Th17 differentiation or produced by these T cells, play a critical and non-redundant role in EAE development. Therefore, drugs targeting production of these cytokines are likely to have therapeutic potential in treatment of MS.
Compounds of Formula I were administered at 50 to 125 mg/kg b.i.d. from time of immunization to EAE mice to assess anti-inflammatory activity. In this model, EAE is induced by MOG35-55/CFA immunization and pertussis toxin injection in female C57Bl/6 mice.

MV4-11 cells = test: In vivo efficacy in athymic nude mouse acute myeloid leukemia xenograft model using MV4-11 cells; conditions: athymic nude mouse AML xenograft (MV4-11), oral dosing
Experimental: MV4-11 cells (ATCC) were grown under standard cell culture conditions and (NCr) nu/nu fisol strain of female mice age 6-7 weeks were injected with 5×10^6 cells/animal in 100 μL PBS+100 μL Matrigel in the lower left abdominal flank. By approximately day 18-21 after MV4-11 cells injection, mice were randomized based on tumor volume (L×W×H)/2) of average ˜100-300 mm^3. Mice were dosed orally with compound at 5 to 120 mg/kg b.i.d and/or q.d. on a continuous dosing schedule and at 2.5 to 85 mg/kg q.d. on a 5 day on 2 day off, 100 mg/kg q.d. on a 4 day on and 3 day off, 135 mg/kg q.d. on a 3 day on and 4 day off, 180 mg/kg on a 2 day on and 5 day off and 240 mg/kg on a 1 day on and 6 days off dosing schedules in EA006 formulation at 10 mL/kg body weight dose volume. Tumor measurements were taken with electronic micro calipers and body weights measured on alternate days beginning from dosing period. The average tumor volumes, percent Tumor Growth Inhibition (TGI) and % change in body weights were compared relative to Vehicle control animals. The means, statistical analysis and the comparison between groups were calculated using Student's t-test in Excel.

[3] = tested on: Bcl2 and c-myc gene expression; test: Evaluation of target engagement: Bcl2 and c-myc gene expression in MV4-11 and MM1.s xenograft tumors; assay type: in vivo, mouse; conditions: oral dose, tumors harvested 3, 6, 12, 24 hrs post dose for Bcl2 and c-myc gene expression as PD biomarkers
Experimental: MV4-11 and MM1.s cells (ATCC) are grown under standard cell culture conditions and (NCr) nu/nu fisol strain of female mice age 6-7 weeks are injected with 5×10^6 cells/animal in 100 μL PBS+100 μL Matrigel in the lower left abdominal flank. By approximately day 28 after MV4-11 and MM1.s cells injection, mice are randomized based on tumor volume (L×W×H)/2) of average ˜500 mm^3. Mice are dosed orally with compound in EA006 formulation at 10 mL/kg body weight dose volume and tumors harvested 3, 6, 12, 24 hrs post dose for Bcl2 and c-myc gene expression analysis as PD biomarkers.

[4] = tested on: IL-6 and IL-17 and MCP-1 cytokines; test: In vivo efficacy in mouse endotoxemia model; conditions: C57/Bl6 mice, 75 mg/kg oral, LPS 0.5 mg/kg i.p.
Experimental: Sub lethal doses of Endotoxin (E. Coli bacterial lipopolysaccharide) are administered to animals to produce a generalized inflammatory response which is monitored by increases in secreted cytokines. Compounds are administered to C57/Bl6 mice at T=4 hours orally at 75 mg/kg dose to evaluate inhibition in IL-6 and IL-17 and MCP-1 cytokines post 3-h challenge with lipopolysaccharide (LPS) at T=0 hours at 0.5 mg/kg dose intraperitoneally.

[5] = biological target: Brd4 bromodomain 1 (BRD4(1)) (Homo sapiens, UniProt O60885); test: Inhibition of tetra-acetylated histone H4 binding to Brd4 bromodomain 1, measured by FRET (HTRF); parameters: made in house; host or cells: E. coli BL21(DE3); conditions: 2 h at room temperature
Method in brief: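 Inhibition was read as a drop in 665 nm relative to 620 nm HTRF signal after 2 h at room temperature, with IC50 from dose-response curves in duplicate wells. Reactions held 200 nM E. coli-expressed His-tagged bromodomain and 25-50 nM biotinylated tetra-acetylated histone H4 peptide. Buffer was 30 mM HEPES pH 7.4 with KF, CHAPS, BSA and 0.2% DMSO.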

[6] = In vivo efficacy in rat collagen-induced arthritis; conditions: female Lewis rats, dosed Day 11 to Day 17
Experimental: Rat collagen-induced arthritis is an experimental model of polyarthritis that has been widely used for preclinical testing of numerous anti-arthritic agents. Following administration of collagen, this model establishes a measurable polyarticular inflammation, marked cartilage destruction in association with pannus formation and mild to moderate bone resorption and periosteal bone proliferation. In this model, collagen was administered to female Lewis strain of rats on Day 1 and 7 of study and dosed with compounds from Day 11 to Day 17. Test compounds were administered at 25 mg/kg to 120 mg/kg b.i.d and 7.5 mg/kg to 30 mg/kg q.d dose to assess the potential to inhibit the inflammation (including paw swelling), cartilage destruction and bone resorption in arthritic rats, using a model in which the treatment is administered after the disease has been established.

Cc1noc(C)c1-c1cc(-c2c(C)noc2C)c2nc[nH]c2c1 [Example Compound 1, 4,4′-(1H-benzo[d]imidazole-4,6-diyl)bis(3,5-dimethylisoxazole)]
In vivo activity [1]: Active
In vivo activity [2]: Active
In vivo activity (MV4-11 cells): Active
In vivo activity [3]: Active
In vivo activity [4]: Active
IC50 [5]: ≤ 0.3 µM
In vivo activity [6]: Active

Cc1nc2c(-c3c(C)noc3C)cc(-c3c(C)noc3C)cc2[nH]1 [Example Compound 6, 4,4′-(2-methyl-1H-benzo[d]imidazole-4,6-diyl)bis(3,5-dimethylisoxazole)]
In vivo activity [1]: Active
In vivo activity [2]: Active
In vivo activity (MV4-11 cells): Active
IC50 [5]: ≤ 0.3 µM

Cc1nc2c(-c3cccnc3C)cc(-c3c(C)noc3C)cc2[nH]1 [Example Compound 41, 3,5-dimethyl-4-(2-methyl-4-(2-methylpyridin-3-yl)-1H-benzo[d]imidazol-6-yl)isoxazole]
In vivo activity (MV4-11 cells): Active
IC50 [5]: ≤ 0.3 µM
In vivo activity [6]: Active

Cc1nc2c(-c3c(C)nn(C)c3C)cc(-c3c(C)noc3C)cc2[nH]1 [Example Compound 49, 3,5-dimethyl-4-(2-methyl-4-(1,3,5-trimethyl-1H-pyrazol-4-yl)-1H-benzo[d]imidazol-6-yl)isoxazole]
In vivo activity (MV4-11 cells): Active
IC50 [5]: ≤ 0.3 µM
